Values of other authors as cited in patent US20250213580A1, “Improved Thiopurine Formulation and Treatment Methods” (Douglas Pharmaceuticals Ltd, priority 2022, published 2025).
Where two headings read alike, the source gives them in different places.

Tested on: spontaneous colitis in a mouse model
Conditions: intra-rectal administration

Compound | effect on colitis (within 14 days, distal colon) | effect on colitis (mid-colon or proximal colon)
S=c1nc[nH]c2nc[nH]c12 [Formulation 6-MP, 3,7-dihydropurine-6-thione] | did not provide any significant improvement in colitis | 
Nc1nc(=S)c2[nH]cnc2[nH]1 [Formulation 6-TG, 2-amino-6,7-dihydro-3H-purine-6-thione] | ameliorated spontaneous colitis | no improvement in colitis
